Reference: patent EP0808303B1, “5-(4-SUBST.-PIPERIDINYL-1)-3-ARYL-PENTANOIC ACID DERIVATIVES AS TACHYKININ RECEPTOR ANTAGONIST” (AstraZeneca AB, priority 1995, dated 1996)

Key:
human NK1 receptor = target: T1, human NK1 receptor (Homo sapiens, UniProt P25103); experiment: SP Receptor Binding Assay (Test A); conditions: binding of SP at human NK1 receptor expressed in MEL cells
T1 construct: expressed in transfected cells; host or cells: Mouse Erythroleukemia (MEL) cells
Text: SP Receptor Binding Assay (Test A)
The human NK1 receptor was isolated and characterized as described in: B. Hopkins, et al. "Isolation and characterization of the human lung NK1 receptor cDNA" Biochem. Biophys. Res. Comm., 1991, 180, 1110-1117; and the NK1 receptor was expressed in Mouse Erythroleukemia (MEL) cells using a procedure similar to that described in Test B below.

NK1 receptor = NK1 receptor (Oryctolagus cuniculus, UniProt G1SEI7); experiment: Rabbit Pulmonary Artery: NK1 in vitro functional assay (Test C); type: cell-based; conditions: -log molar KB against agonist ASMSP
Sequence of NK1 receptor (G1SEI7 1-407): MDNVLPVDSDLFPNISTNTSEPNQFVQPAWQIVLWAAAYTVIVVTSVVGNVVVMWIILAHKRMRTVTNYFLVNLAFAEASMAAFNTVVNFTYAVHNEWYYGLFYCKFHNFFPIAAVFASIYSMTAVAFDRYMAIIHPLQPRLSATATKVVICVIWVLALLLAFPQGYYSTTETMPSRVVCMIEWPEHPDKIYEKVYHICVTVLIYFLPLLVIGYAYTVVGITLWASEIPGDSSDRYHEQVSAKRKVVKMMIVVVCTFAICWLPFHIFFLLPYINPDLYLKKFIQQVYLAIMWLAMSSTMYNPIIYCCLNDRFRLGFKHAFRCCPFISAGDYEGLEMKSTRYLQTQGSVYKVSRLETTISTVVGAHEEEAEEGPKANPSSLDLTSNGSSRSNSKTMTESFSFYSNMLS
Protocol: Rabbit Pulmonary Artery: NK1 in vitro functional assay (Test C)
Male New Zealand white rabbits are killed by lethal injection (Nembutal, 60 mg/kg into a cannulated ear vein). Heparin, 0.0025 ml/kg of a 1000 U/ml solution, is injected into the ear vein prior to nembutal in order to decrease blood coagulation. The left and right branches of the pulmonary artery are isolated from the rest of the lung tissue and cut in half to provide four ring segments from each animal. […] Changes in tension are measured on a Grass polygraph via Grass FT-03 force transducers. […]
Potencies of the compounds are determined by calculating the apparent dissociation constants (KB) for each concentration tested using the standard equation: KB = [antagonist]/(dose ratio - 1) [formula] where dose ratio = antilog[(agonist-log molar EC50 without compound) - (agonist-log molar EC50 with compound)]. The KB values are converted to the negative logarithms and expressed as -log molar KB (i.e. pKB). […] The EC50 values are converted to negative logarithms and expressed as -log molar EC50. Maximum relaxation responses to ASMSP are determined by expressing the maximum response to the agonist as a percentage of the relaxation caused by papaverine.

NK2 = target: T2, NK2 (Cavia porcellus, UniProt Q64077); experiment: Guinea Pig Trachea Assay: NK2 in vitro functional assay (Test D); type: cell-based; conditions: -log molar KB against agonist BANK
T2 construct: The trachea are removed, trimmed of excess tissue (including removal of epithelium) and cut in spiral fashion; from tissue; host or cells: guinea pig trachea strips
T2 sequence (Q64077 1-402): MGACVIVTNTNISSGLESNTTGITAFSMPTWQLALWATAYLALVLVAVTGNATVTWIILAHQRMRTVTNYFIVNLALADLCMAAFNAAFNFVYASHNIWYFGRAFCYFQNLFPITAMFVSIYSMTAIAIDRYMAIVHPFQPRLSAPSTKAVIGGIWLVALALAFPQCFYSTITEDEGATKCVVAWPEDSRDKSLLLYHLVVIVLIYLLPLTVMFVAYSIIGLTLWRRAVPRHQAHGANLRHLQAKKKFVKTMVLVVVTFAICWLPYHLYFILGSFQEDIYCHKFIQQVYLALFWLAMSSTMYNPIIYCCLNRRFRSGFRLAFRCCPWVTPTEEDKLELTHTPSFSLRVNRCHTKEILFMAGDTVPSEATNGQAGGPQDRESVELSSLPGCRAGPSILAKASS
Protocol: Guinea Pig Trachea Assay: NK2 in vitro functional assay (Test D)
Male guinea pigs are killed by a sharp blow to the back of the head followed by exsanguination. The trachea are removed, trimmed of excess tissue (including removal of epithelium) and cut in spiral fashion. Each longitudinally cut tracheal segment is suspended as a strip in a water-jacketed (37.5°C) tissue bath containing a physiological salt solution of the following composition (mM): NaCl, 119; KCl 4.6; CaCl2, 1.8; MgCl2, 0.5; NaH2PO4, 1; NaHCO3, 25; glucose, 11; and indomethacin, 0.005 (to inhibit cyclooxygenase); gassed continuously with 95% O2-%5 CO2. […] Contractile responses are measured on a Grass polygraph via Grass FT-03 force transducers. […]
Potencies of the compounds are evaluated by calculating apparent dissociation constants (KB) for each concentration tested using the standard equation: KB = [antagonist]/(dose ratio-1) [formula] where dose ratio = antilog[(agonist -log molar EC50 without compound) - (agonist-log molar EC50 with compound)]. The KB values are converted to the negative logarithms and expressed as -log molar KB (i.e. pKB). […] The EC50 values are converted to the negative logarithms and expressed as -log molar EC50. Maximum contractile responses to BANK are determined by expressing the maximum response to BANK as a percentage of the initial contraction caused by capasacin.

human NK2 receptor = target: T3, human NK2 receptor (Homo sapiens, UniProt P21452)
T3 sequence (P21452 1-398): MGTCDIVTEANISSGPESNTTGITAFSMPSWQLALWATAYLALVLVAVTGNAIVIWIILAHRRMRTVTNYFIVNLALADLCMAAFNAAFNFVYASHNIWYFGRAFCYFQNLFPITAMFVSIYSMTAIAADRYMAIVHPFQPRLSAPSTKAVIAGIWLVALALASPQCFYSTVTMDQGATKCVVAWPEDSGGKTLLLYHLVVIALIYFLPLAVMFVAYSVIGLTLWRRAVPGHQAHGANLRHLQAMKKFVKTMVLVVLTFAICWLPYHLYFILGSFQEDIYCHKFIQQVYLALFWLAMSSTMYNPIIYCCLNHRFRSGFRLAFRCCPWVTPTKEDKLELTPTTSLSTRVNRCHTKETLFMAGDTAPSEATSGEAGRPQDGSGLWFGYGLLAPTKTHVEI

T1 sequence (P25103 whole entry): as the sequence (G1SEI7 1-407) above, with F12S, D189N, A369P, E371D, N376T, G386C, N391D, Y402S, M405V counted along it

Which Ki (human NK1 receptor) does the source give for `O=C(CC(CCN1CCC(O)(c2ccccc2)CC1)c1ccc(Cl)c(Cl)c1)NCc1ccccc1` (stereo not shown) [Example 1, N-Benzyl-5-(4-hydroxy-4-phenylpiperidino)-3-(3,4-dichlorophenyl)pentanamide] here?
The Ki was 30 nM.

And the pKB (NK1 receptor)?
Its pKB is 5.41.

What about the Kb (NK2) of the same compound?
The Kb was 794 nM.

And the Ki (human NK2 receptor)?
Its Ki is 15 nM.
